These results are taken from the SangsterLogP compilation.

SMILES strings stand for the structures.

The series can be described thus: method code SF-AS, from DOI: 10.1002/zfch.19790190911.
As for `CC(C)Cc1nnc(N)o1`, the log partition coefficient (logP) worked out at 0.4. Compound `CCCCC(=O)NN` yielded a log partition coefficient (logP) of -0.11. As to `CCCCc1nnc(N)o1`, the logP worked out at 0.65. The value for `CCCCCCCCCC(=O)NN` was 0.03; that for `CCCC(=O)NN` was -0.62. For the compound `CCCCCCCC(=O)NN`, the logP is 1. The compound `CCC(C)C(=O)NN` (stereo not drawn) registered a lipophilicity (logP) of -0.33. Compound `CCc1nnc(N)o1` had a logP of -0.3. The figure for `CC(=O)NN` is -1.58. As for `CCC(C)c1nnc(N)o1` (stereo not drawn), the logP is 0.62. The value for `CCC(=O)NN` was -1; that for `NNC=O` was -2.05; that for `CC(C)(C)c1nnc(N)o1` was 0.48. The value for `CCCCCCCCC(=O)NN` was 0.5; that for `CC(C)C(=O)NN` was -0.63. In turn, `Nc1nnc(CCc2ccccc2)o1` yielded a lipophilicity (logP) of 1.19.

In turn, `CCCCCCCc1nnc(N)o1` showed a logP of 0.73. The value for `CCCCCCC(=O)NN` was 0.97; that for `Nc1nnco1` was -1.44; that for `CCCc1nnc(N)o1` was 0.23. The value for `CC(C)c1nnc(N)o1` was 0.2; that for `CC(C)(C)C(=O)NN` was -0.35. The value for `CCCCCc1nnc(N)o1` was 1.1; that for `CCCCCCc1nnc(N)o1` was 1.43. `CCCCCC(=O)NN`: the lipophilicity (logP) stood at 0.48. Compound `CC(C)CC(=O)NN` yielded a lipophilicity (logP) of -0.31.

Compound `Cc1nnc(N)o1` showed a logP of -0.92. Regarding `Nc1nnc(Cc2ccccc2)o1`, the logP came to 0.95.
